The values below come from ChEMBL document CHEMBL4219106, “Discovery and optimization of tetrahydropyrido[4,3-d]pyrimidine derivatives as novel ATX and EGFR dual inhibitors” (Bioorg Med Chem, 2018).

pIC50: −log10 of the molar value. The source made the active and inactive calls. The calls are words filed in the database; no cut-off is given here. A value given as a limit tells only on which side of the number the result lay.

Test [1] concerns A549. In words: Cytotoxicity against human A549 cells assessed as reduction in cell viability after 72 hrs by MTT assay. The format is functional, cell-based. The note with it: A549, 72 h. (In general: Tetrazolium assays rely on reduction of a dye to a coloured formazan, in cell work by metabolically active cells.)
In test [2] the test system is NCI-H1975. Briefly: Cytotoxicity against human NCI-H1975 cells assessed as reduction in cell viability after 72 hrs by MTT assay. The format is functional, cell-based. The note with it: NCI-H1975, 72 h.
The test system of test [3] is MKN-45. Briefly: Cytotoxicity against human MKN45 cells assessed as reduction in cell viability after 72 hrs by MTT assay. The format is functional, cell-based. The note with it: MKN-45, 72 h.
Test [4] in a line: Cytotoxicity against human SGC cells assessed as reduction in cell viability after 72 hrs by MTT assay. The format is functional, cell-based.
In test [5] the target is Epidermal growth factor receptor (Homo sapiens, UniProt P00533). In words: Inhibition of EGFR (unknown origin) using peptide substrate after 60 mins by HTRF assay. For orientation: TR-FRET usually uses a lanthanide donor and a delayed reading to cut background.
For test [6], the target named is Vascular endothelial growth factor receptor 2 (Homo sapiens, UniProt P35968). Briefly: Inhibition of VEGFR2 (unknown origin) using peptide substrate after 60 mins by HTRF assay.
Test [7] in a line: Antifibrotic activity against Wistar rat cardiac fibroblasts assessed as inhibition of cell proliferation at 20 uM after 12 hrs by MTT assay relative to control. The format is functional.
Test [8] deals with RAW264.7. Briefly: Anti-inflammatory activity in mouse RAW264.7 cells assessed as inhibition of LPS-induced NO production by measuring NO level at 10 ug/ml preincubated for 1 hr followed by LPS-stimulation measured after 24 hrs by Griess assay. The format is functional. For orientation: Nitrite, measured by Griess reagent, commonly stands in for NO production.
Test [9] concerns RAW264.7. In words: Anti-inflammatory activity in mouse RAW264.7 cells assessed as inhibition of LPS-induced NO production by measuring NO level at 2.5 ug/ml preincubated for 1 hr followed by LPS-stimulation measured after 24 hrs by Griess assay. The format is functional.
Test [10] relates to RAW264.7. In words: Anti-inflammatory activity in mouse RAW264.7 cells assessed as inhibition of LPS-induced NO production by measuring NO level at 5 ug/ml preincubated for 1 hr followed by LPS-stimulation measured after 24 hrs by Griess assay. The format is functional.
Test [11] in a line: Inhibition of ATX (unknown origin). Also on record: species or system Homo sapiens.
Test [12] can be described thus: Inhibition of glycosylated human ATX using substrate FS-3 preincubated for 45 mins followed by substrate addition measured after 45 mins by fluorescence assay.
The test system of test [13] is MKN-45. Briefly: Potency index, ratio of gefitinib IC50 to compound IC50 for human MKN45 cells. The format is functional.
Test [14] has as its system A549. Briefly: Potency index, ratio of gefitinib IC50 to compound IC50 for human A549 cells. The format is functional.
Test [15] is described as follows: Potency index, ratio of gefitinib IC50 to compound IC50 for human SGC cells. The format is functional.
Test [16] concerns the target Epidermal growth factor receptor (Homo sapiens, UniProt P00533, L858R/T790M). Briefly: Inhibition of EGFR T790M/L858R double mutant (unknown origin) using peptide substrate after 60 mins by HTRF assay.
Test [17] in a line: Antifibrotic activity against TGF-induced Wistar rat cardiac fibroblasts assessed as inhibition of cell proliferation after 12 hrs by MTT assay. The format is functional.

Chain of Vascular endothelial growth factor receptor 2 (P35968 whole entry): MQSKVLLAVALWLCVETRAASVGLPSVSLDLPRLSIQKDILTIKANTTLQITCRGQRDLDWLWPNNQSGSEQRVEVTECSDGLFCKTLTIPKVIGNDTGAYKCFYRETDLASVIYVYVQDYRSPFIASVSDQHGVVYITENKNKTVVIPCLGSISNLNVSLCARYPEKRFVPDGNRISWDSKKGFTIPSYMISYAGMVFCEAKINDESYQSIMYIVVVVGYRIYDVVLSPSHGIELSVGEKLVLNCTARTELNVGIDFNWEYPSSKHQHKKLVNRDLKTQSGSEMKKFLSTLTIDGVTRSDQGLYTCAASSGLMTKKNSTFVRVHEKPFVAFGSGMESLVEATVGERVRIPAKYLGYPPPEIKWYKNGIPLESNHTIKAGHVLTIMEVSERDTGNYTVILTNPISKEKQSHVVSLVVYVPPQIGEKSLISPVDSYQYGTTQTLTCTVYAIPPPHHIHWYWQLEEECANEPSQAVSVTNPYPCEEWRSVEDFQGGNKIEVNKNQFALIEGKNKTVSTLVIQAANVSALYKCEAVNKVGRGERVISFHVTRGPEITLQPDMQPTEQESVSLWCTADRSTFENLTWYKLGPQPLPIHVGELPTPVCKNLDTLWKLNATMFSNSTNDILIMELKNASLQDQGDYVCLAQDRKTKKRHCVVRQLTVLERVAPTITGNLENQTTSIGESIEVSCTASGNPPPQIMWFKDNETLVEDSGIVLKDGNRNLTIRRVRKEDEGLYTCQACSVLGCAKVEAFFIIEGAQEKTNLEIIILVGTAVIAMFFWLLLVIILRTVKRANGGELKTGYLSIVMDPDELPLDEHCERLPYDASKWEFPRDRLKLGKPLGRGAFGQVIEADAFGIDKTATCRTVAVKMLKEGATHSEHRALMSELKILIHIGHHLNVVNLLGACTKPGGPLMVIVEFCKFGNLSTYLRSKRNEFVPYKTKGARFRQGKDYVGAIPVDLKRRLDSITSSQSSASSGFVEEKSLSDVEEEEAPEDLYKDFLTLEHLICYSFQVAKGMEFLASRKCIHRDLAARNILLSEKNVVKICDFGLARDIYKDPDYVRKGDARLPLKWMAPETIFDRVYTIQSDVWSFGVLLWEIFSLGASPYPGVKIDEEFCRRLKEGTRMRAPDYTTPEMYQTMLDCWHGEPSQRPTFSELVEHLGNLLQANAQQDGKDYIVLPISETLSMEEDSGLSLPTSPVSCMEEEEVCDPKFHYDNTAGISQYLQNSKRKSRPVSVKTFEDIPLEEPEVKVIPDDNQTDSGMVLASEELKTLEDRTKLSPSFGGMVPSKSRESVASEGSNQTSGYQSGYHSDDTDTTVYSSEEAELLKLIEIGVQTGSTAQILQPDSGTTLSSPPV
Chain of Epidermal growth factor receptor (Homo sapiens, UniProt P00533) (P00533 whole entry): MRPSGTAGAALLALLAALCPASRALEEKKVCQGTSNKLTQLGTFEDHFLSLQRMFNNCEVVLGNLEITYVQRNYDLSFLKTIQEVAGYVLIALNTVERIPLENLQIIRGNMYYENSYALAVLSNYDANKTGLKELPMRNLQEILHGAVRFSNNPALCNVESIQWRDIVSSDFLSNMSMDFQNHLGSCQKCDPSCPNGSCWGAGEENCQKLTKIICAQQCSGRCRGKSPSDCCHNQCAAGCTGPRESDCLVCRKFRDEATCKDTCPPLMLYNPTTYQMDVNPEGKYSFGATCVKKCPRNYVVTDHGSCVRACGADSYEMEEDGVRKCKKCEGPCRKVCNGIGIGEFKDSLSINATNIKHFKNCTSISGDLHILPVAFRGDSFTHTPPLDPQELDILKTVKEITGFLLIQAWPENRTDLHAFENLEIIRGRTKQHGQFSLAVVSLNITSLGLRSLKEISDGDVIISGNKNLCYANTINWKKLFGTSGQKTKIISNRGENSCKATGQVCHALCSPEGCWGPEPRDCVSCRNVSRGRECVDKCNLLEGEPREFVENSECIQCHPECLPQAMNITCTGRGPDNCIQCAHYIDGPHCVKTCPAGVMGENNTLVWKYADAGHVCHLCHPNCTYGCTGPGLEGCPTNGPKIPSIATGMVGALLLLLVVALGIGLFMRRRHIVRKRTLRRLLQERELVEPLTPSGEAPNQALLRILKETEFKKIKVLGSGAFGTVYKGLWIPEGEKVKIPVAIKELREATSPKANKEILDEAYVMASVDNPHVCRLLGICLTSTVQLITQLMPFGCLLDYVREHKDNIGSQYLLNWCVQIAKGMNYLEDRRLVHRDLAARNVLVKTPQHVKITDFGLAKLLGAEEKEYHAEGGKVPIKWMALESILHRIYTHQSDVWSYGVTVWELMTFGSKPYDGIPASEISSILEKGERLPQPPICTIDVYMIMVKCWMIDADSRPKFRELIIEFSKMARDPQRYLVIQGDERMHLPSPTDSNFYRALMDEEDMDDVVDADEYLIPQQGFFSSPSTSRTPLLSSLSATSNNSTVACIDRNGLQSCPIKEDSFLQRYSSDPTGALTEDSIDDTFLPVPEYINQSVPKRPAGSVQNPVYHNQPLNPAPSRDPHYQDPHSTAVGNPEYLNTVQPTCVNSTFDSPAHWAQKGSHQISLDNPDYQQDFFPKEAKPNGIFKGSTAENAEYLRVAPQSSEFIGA
Chain of Epidermal growth factor receptor (Homo sapiens, UniProt P00533, L858R/T790M) (P00533 25-1210 T790M/L858R limits assumed): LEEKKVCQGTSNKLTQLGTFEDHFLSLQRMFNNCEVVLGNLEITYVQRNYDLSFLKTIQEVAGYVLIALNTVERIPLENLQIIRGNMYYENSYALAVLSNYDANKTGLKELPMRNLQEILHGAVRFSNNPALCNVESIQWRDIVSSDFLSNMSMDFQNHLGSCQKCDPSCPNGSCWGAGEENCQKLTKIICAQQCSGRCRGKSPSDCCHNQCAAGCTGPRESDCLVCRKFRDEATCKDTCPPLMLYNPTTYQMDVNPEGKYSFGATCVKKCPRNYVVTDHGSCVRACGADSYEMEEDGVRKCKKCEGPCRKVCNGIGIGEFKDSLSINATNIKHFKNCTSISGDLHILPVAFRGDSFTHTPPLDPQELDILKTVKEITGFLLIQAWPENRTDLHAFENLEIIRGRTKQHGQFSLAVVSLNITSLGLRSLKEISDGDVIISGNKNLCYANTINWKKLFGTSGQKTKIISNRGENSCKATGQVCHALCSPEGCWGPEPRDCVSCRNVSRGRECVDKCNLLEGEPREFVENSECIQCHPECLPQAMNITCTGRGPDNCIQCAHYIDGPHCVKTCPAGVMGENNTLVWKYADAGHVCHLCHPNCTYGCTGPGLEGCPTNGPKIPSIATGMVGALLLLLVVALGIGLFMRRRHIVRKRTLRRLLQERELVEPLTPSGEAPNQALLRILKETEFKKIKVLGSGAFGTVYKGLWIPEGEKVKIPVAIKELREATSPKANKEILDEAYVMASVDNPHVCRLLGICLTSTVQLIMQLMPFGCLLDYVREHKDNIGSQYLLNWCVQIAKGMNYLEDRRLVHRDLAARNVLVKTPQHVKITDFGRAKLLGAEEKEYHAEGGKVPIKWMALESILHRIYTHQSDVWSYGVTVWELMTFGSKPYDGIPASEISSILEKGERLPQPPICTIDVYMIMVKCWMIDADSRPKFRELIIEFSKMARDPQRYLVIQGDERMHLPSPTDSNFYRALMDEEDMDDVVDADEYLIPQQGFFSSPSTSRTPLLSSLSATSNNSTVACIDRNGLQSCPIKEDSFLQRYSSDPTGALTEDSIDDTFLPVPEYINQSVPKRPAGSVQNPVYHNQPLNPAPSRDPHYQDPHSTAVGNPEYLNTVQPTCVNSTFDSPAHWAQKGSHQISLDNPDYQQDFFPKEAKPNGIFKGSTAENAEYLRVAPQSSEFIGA

In general, pIC50 refers to the negative decadic logarithm of the IC50, by convention in mol/L. As usually defined, the inhibition is the change of the read-out against control, counted positive when it falls. In the case of `O=C(N/N=C/c1cccs1)N1CCc2ncnc(Nc3ccc(F)c(Cl)c3)c2C1`, the pIC50 in test [1] was < 3.70; in test [2] it was 4.48; in [3] it was 4.24; in test [4] it was 4.02; in [5], 7.20; in test [6] it was 6.62. Moreover, the inhibition at 20 µM in test [7] came to 83%. In addition, in [8], the Activity is <1.9 µM.
As to `O=C(N/N=C/c1ccc(C(F)(F)F)cc1)N1CCc2ncnc(Nc3cccc(C(F)(F)F)c3)c2C1`, the inhibition at 20 µM in test [7] was in the range of 65 to 83%.
For the compound `Cc1ccc(/C=N/NC(=O)N2CCc3ncnc(Nc4ccc(F)c(Cl)c4)c3C2)cc1C`, the pIC50 was 4.81 in test [1], 5.17 in test [2], 4.74 in [3] and 4.94 in test [4].
For `O=C(N/N=C/c1ccco1)N1CCc2ncnc(Nc3cccc(Br)c3)c2C1`, in that order: 4.33, < 3.70, 4.18 and < 3.70.
Turning to `N#Cc1ccc(/C=N/NC(=O)N2CCc3ncnc(Nc4ccc(F)c(Cl)c4)c3C2)cc1`, the negative logarithm of the IC50 (pIC50) was 4.37 in test [1], 4.17 in test [2], 4.28 in test [3] and 4.45 in test [4].
Consider `O=C(N/N=C/c1ccc(Br)cc1)N1CCc2ncnc(Nc3ccc(F)c(Cl)c3)c2C1`, for which the pIC50 is 4.85 in test [1], < 3.70 in [2], 4.92 in test [3] and 4.87 in test [4]. Moreover, the inhibition at 20 µM in test [7] was 65 to 83%.
As to `O=C(N/N=C/c1ccc(C(F)(F)F)cc1)N1CCc2ncnc(Nc3ccc(F)c(Cl)c3)c2C1`, the pIC50 in [1] was 4.42; in test [2], 4.43; in test [3], 4.67; in test [4] it was 4.44. Also, in test [7], the inhibition at 20 µM was 65 to 83%. The Activity in [8] came to 0.79 µM; in test [9], 3.87 µM; in test [10] it was 2.1 µM.
For the compound `O=C(N/N=C/c1ccccc1)N1CCc2ncnc(Nc3cccc(Br)c3)c2C1`, the pIC50 was 4.64 in test [1], 4.42 in test [2], 4.65 in test [3] and 4.78 in test [4]. In addition, in test [8], the Activity was <1.9 µM.
With `O=C(N/N=C/c1cccs1)N1CCc2ncnc(Nc3cccc(C(F)(F)F)c3)c2C1`, the pIC50 in test [1] is 4.37; in test [2] it was 3.77; in [3], 4.44; in test [4] it was 4.61. Further, the inhibition at 20 µM in test [7] was 65 to 83%. Also, the Activity in test [8] is <1.9 µM.
On to `O=C(N/N=C/c1ccccc1)N1CCc2ncnc(Nc3ccc(F)c(Cl)c3)c2C1`, for which the pIC50 is 4.50 in [1], 4.54 in [2], 4.64 in test [3] and 5.13 in test [4].
In the case of `O=C(CCc1nc2ccccc2s1)N1CCc2ncnc(Cc3ccc(F)cc3)c2C1`, the negative-log IC50 (pIC50) in test [11] was 8.59; in test [12], 7.98. Further, the inhibition at 20 µM in test [7] stood at 68%.
For `O=C(N/N=C/c1cccs1)N1CCc2ncnc(Nc3cccc(Br)c3)c2C1`, the pIC50 is 4.30 in [1], 3.92 in test [2], < 3.70 in test [3] and < 3.70 in [4]. Further, the inhibition at 20 µM in test [7] was 65 to 83%. For the same compound, the Activity in test [8] was <1.9 µM.
With `O=C(N/N=C/c1ccc(Br)cc1)N1CCc2ncnc(Nc3cccc(C(F)(F)F)c3)c2C1`, the negative-log IC50 (pIC50) was 4.94 in test [1], 4.21 in test [2], 4.94 in [3] and 4.78 in test [4]. In [7], the inhibition at 20 µM was in the range of 65 to 83%.
With `O=C(N/N=C/c1ccc(Br)cc1)N1CCc2ncnc(Nc3cccc(Br)c3)c2C1`, the pIC50 in test [1] was 5.18; in test [2], 4.29; in test [3] it was 4.63; in test [4] it was 5.16. Further, the inhibition at 20 µM in test [7] fell in the range of 65 to 83%. For the same compound, the inhibition entry in test [8], in [9] and in [10] was “Active” in each case.
Regarding `CSc1ccc(/C=N/NC(=O)N2CCc3ncnc(Nc4ccc(F)c(Cl)c4)c3C2)cc1`, in test [7], the inhibition at 20 µM lay within 65 to 83%. Moreover, the Activity in test [8] was <1.9 µM.
For the compound `O=C(N/N=C/c1cccc(Br)c1)N1CCc2ncnc(Nc3cccc(Br)c3)c2C1`, the inhibition result in [8], in [9] and in test [10] was “Active” each time.
`O=C(N/N=C/c1ccc(F)cc1Cl)N1CCc2ncnc(Nc3cccc(Br)c3)c2C1`: the pIC50 is 5.79 in test [1]; 4.81 in test [2]; 5.77 in test [3]; 6.00 in [4]; 7.74 in test [5]; 6.88 in test [6]. The negative-log IC50 (pIC50) in test [16] was 6.03. The “Ratio IC50” value was 6.1 in test [13], 7.6 in [14] and 3.3 in test [15]. Further, the inhibition result in [8], in test [9] and in test [10] was “Active” in each case.
As to `O=C(N/N=C/c1ccc(F)cc1)N1CCc2ncnc(Nc3ccc(F)c(Cl)c3)c2C1`, the pIC50 was 4.94 in test [1], 4.19 in test [2], 4.96 in test [3] and 4.77 in test [4].
On to `O=C(N/N=C/c1ccc(F)cc1)N1CCc2ncnc(Nc3cccc(C(F)(F)F)c3)c2C1`, for which the pIC50 in test [1] is 5.20; in test [2], 4.26; in [3], 5.40; in [4], 5.37.
For `O=C(N/N=C/c1cccc([N+](=O)[O-])c1)N1CCc2ncnc(Nc3ccc(F)c(Cl)c3)c2C1`, in that order: 4.37, 4.06, < 3.70 and 4.46.
In the case of `O=C(N/N=C/c1cc(F)c(F)cc1Cl)N1CCc2ncnc(Nc3ccc(F)c(Cl)c3)c2C1`, the negative-log IC50 (pIC50) in test [1] was 5.12; in test [2], 4.34; in [3] it was 5.13; in test [4], 4.98; in [5] it was 7.37; in test [6] it was 6.77. The results for the pIC50 in test [17] and in test [12] were 5.72 and 7.42, respectively. In addition, the inhibition at 20 µM in [7] is 65 to 83%.
As to `O=C(N/N=C/c1ccc(F)cc1)N1CCc2ncnc(Nc3cccc(Br)c3)c2C1`, the pIC50 in [1] was 5.64; in test [2] it was 4.42; in test [3] it was 5.60; in [4] it was 5.75. For the same compound, the inhibition result in [8], in test [9] and in [10] was “Active” in each case.
`O=C(N/N=C/c1cccnc1)N1CCc2ncnc(Nc3cccc(Br)c3)c2C1`: the pIC50 is 4.14 in test [1], < 3.70 in test [2], < 3.70 in test [3] and < 3.70 in test [4].
